The numbers were not newly measured in US20220184234A1, “METABOLIC TARGETING OF LOW GRADE TUMORS” (SonalaSense, Inc., priority 2020, published 2022), which cites them from elsewhere.

This data set has as its system tumor.
[1] abbreviates: all experimental groups (5-ALA and FUS).

For the compound `NCC(=O)CCC(=O)O` [5-ALA, 5-aminolevulinic acid], the normalized tumor volume (5-ALA only group (no FUS), untreated controls 32±10 mm^3) was 24±6 mm^3. The “subjects surviving past 60 days” value (5-ALA, group sonicated at multiple points within the tumor (MP group)) is on record as 50%. For the same compound, under setting [1], the “survival compared to control animals” value is “improved survival” and the “tumor growth compared to control animals” value was “inhibited tumor growth”. The tissue damage result (rats, 20 mg/kg 5-ALA, sonication at 55.2 W/cm^2 for 20 minutes) is reported as “suffered tissue damage”.
